How the values were obtained:
ovarian PDCs = experiment: Cell viability of ovarian patient-derived cancer cells; type: cell-based, human; conditions: 33 μM APR-246 or 100 μM BSO for 6 days
Description: Tumor samples and ascites were obtained from four ovarian cancer patients who underwent surgery or cell-free and concentrated ascites reinfusion therapy at the National Cancer Center Hospital or Kaname-cho Hospital (Tokyo, Japan) and were cultured in vitro. This protocol was approved by the Institutional Review Board of the National Cancer Center (Tokyo, Japan), and informed consent was obtained from the patients. To establish CCCO219 and CCC1216 PDCs, patient ascites (24 ml) were diluted in two volumes of PBS containing 2 mM EDTA, layered over 15 ml Ficoll-Paque PLUS (GE Healthcare), and centrifuged at 2200 rpm for 30 min. The interphase mononuclear layer was transferred to a fresh conical tube and washed twice with PBS containing 2 mM EDTA. […]
Cell viability was examined by measuring the cellular ATP level using the CellTiter-Glo Luminescent Cell Viability Assay (Promega). […] Cells were trypsinized after a further 48 hrs, counted, and reseeded at the specified density in 96-well plates. To measure cell viability after drug treatment, cells were trypsinized, counted, reseeded at the specified density in 96-well plates, and exposed to the indicated concentrations of drugs. Cell viability was measured using the CellTiter-Glo Luminescent Cell Viability Assay. Luminescence was measured using an Envision Multi-label plate reader (PerkinElmer).

ROS = experiment: Detection of ROS in cells (ROS-Glo); type: cell-based, human
Description: GSH, ROS and apoptosis were detected using the GSH/GSSG-Glo Assay (Promega) and/or the GSH-Glo Assay (Promega), the ROS-Glo Assay (Promega), and the Caspase-Glo 3/7 Assay, respectively. To measure levels of GSH, ROS and apoptosis after drug treatment, cells were trypsinized, counted, reseeded at the specified density in 96-well plates and exposed to the indicated concentrations of drugs. After 16-48 hrs, luminescence was measured using an Envision Multi-label plate reader (PerkinElmer). To measure levels of GSH and ROS after siRNA-mediated knockdown, cell lines were transfected with siRNAs (25 nM) using Lipofectamine RNAiMAX. After 48 hrs, cells were trypsinized and transfected repeatedly with siRNAs (25 nM) using Lipofectamine RNAiMAX. Cells were trypsinized after a further 48 hrs, counted, and reseeded at the specified density in 96-well plates. After 72-120 hrs, luminescence was measured using an Envision Multi-label plate reader (PerkinElmer). Cell viability was also measured using the CellTiter-Glo Luminescent Cell Viability Assay (Promega). Caspase-3/7, GSH, and ROS levels were normalized against cell viability. The GSH/GSSG ratio was calculated as the GSH-GSSG signal divided by the GSSG/2 signal. Relative signal ratios in treated samples were normalized against untreated samples.

## COCC1(CO)C(=O)C2CCN1CC2 (stereo not drawn) [APR-246]
Ovarian PDCs
  sensitivity of ARID1A-deficient versus ARID1A-positive PDCs: more sensitive
ROS; 40 μM APR-246, 24 hrs
  ROS level in SWI/SNF complexes-deficient cancer cells: increased in the ROS level
ROS; 40 or 50 μM APR-246, 48 hrs
  ROS levels in gastric cancer PDCs: increased more markedly in ARID1A-deficient than in ARID1A-proficient PDCs
ROS; ARID1A-KO versus ARID1A-WT HCT116 cells, 48 hrs
  intracellular ROS level (H2O2): increased more in ARID1A-KO cells than in ARID1A-WT cells
ROS; ARID1A-deficient PDCs, 40-50 μM, 24-48 hrs
  levels of ROS and apoptosis in ovarian PDCs: increased the levels of ROS and apoptosis
ROS; ARID1A-deficient versus ARID1A-proficient ovarian and other cancer cells
  ROS level in cancer cell lines: increased ROS level

— patent US20220087987A1, “A METHOD FOR TREATING SWI/SNF COMPLEX-DEFICIENT CANCERS COMPRISING GLUTATHIONE (GSH) METABOLIC PATHWAY INHIBITOR” (National Cancer Center, priority 2018, published 2022)
